Data: paper PMC11045757, “Group 3 medulloblastoma transcriptional networks collapse under domain specific EP300/CBP inhibition” (Nature Communications, 2024)
Values joined by “and” are separate entries in the source; they are usually repeats but may differ in a detail not shown here. Equal values may be shown once. Read-outs that look alike come from different tables or passages of the source.

Assays:
Assay type in all cases: cell-based
HDMB03 (HDMBO3) cells = experiment: ERCC spike-in RNAseq gene expression after 6 h treatment; settings: HDMBO3, replicate values, Supplementary Fig 6c
Method: (§1) First, we examined global changes in gene expression induced by drug treatment.
(§2) External RNA consortium control RNAs (ERCC, Ambion) were added directly to Trizol, based on cell number prior to RNA extraction. RNA samples were treated with DNAse I (Invitrogen) prior to recovery. Samples were obtained in biological triplicate. Total RNA was subjected to ribosomal RNA depletion prior to library preparation using the Truseq Stranded Total Library Prep Kit (Illumina) and sequencing on a Nextseq-500 (paired end, 100 bp reads).
(§3) Sequences were aligned using HISAT2 (version 2.1.0)[77] in paired-end mode with default parameters to build version hg19 of the human genome to which the sequences of the ERCC synthetic spike-in RNAs (http://tools.invitrogen.com/downloads/ERCC92.fa) had been added. Per-gene expression was quantified using htseq-count[78] with parameters “-i gene_id --stranded=reverse -f bam -m,” and version 87 of the canonical GRCh37 gene list from RefSeq to which ERCC coordinates were added. TPM-normalized (Transcripts Per Million) expression was then computed for each gene and synthetic ERCC spike-in RNA. Per-gene exon length was calculated across all exons of all isoforms of each gene. The standard TPM-normalization strategy is: normterm = sum of (read count * read length/exon length) across all genes. TPM = read count * read length/exon length * 1e6/normterm. We used a loess regression to normalize the TPM values across all samples of the batch, using only the spike-in values to fit the loess by the “affy” R package[79] with function loess.normalize. This function allowed us to perform loess regression on a matrix of TPM values and used the ERCC subset of data for fitting the loess. The output from this was a matrix of normalized TPM values controlled by ERCC spike-ins.
(§4) We used the elbow method[81] to determine the k value in k-means cluster analysis.
(§5) Dependency analysis was performed using the 22Q4 release of the DepMap dataset, comprising seven medulloblastoma cell lines: UW228, DAOY, ONS76, D458, D425, D283MED, D341MED. Dependency was defined as a Chronos gene effect score of <−0.5, and gene lists were filtered for dependency in >2/7 medulloblastoma cell lines. […] PANTHER was used to define gene annotations, with unknown annotations assigned using individual assessment using the Genecards.org resource.

MB002 cells = experiment: as above; settings: MB002, replicate values, Supplementary Fig 6c
Method: as §1, §2, §3, §4, §5

[1] = system: MB002 group 3 medulloblastoma cells; experiment: CellTiter-Glo dose-response growth assay; settings: for IC50: MB002, 72 h, day 3, read-out: d3 IC50 MB002; for normalized growth (fraction of control), replicate values: MB002, log10[compound]
Procedure, shortened: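 MB002 group 3 medulloblastoma cells were seeded in growth media at 500 cells/well in a 384-well plate, exposed to a range of compound concentrations, and incubated for the indicated time. Viability was then measured by CellTiter-Glo following the manufacturer's instructions, with plates read on an Envision 2104 microplate reader to produce dose-response growth curves.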

[2] = system: HDMB03 (HDMBO3) group 3 medulloblastoma cells; experiment: CellTiter-Glo dose-response growth assay; settings: for IC50: Homo sapiens; for normalized growth (fraction of control), replicate values: HDMBO3, log10[compound]
Procedure, shortened: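 HDMB03 group 3 medulloblastoma cells were plated in growth media at 500 cells/well in a 384-well plate, treated with compound, and incubated for the noted timepoint. Viability was then measured by CellTiter-Glo following the manufacturer's instructions, with plates read on an Envision 2104 microplate reader to generate dose-response growth curves.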

[3] = HD-MB03, 72 h, day 3, read-out: d3 IC50 HDMBO3

CNC(=O)Nc1ccc2c(c1)CCC21OC(=O)N(CC(=O)N(Cc2ccc(F)cc2)C(C)C(F)(F)F)C1=O (stereo not drawn) [Compound A485]
Normalized MYC expression (HDMB03 (HDMBO3) cells): 0.9151 and 0.6386 and 0.4867
Normalized MYC expression (MB002 cells): 0.2801 and 0.5062 and 0.4843
IC50 [1]: 1970 nM
IC50 [2, 3]: 400 nM

CO[C@H]1CC[C@H](n2c([C@@H]3CCCC(=O)N3c3ccc(F)c(F)c3)nc3cc(-c4c(C)noc4C)ccc32)CC1 [CCS1477]
Normalized MYC expression (HDMB03 (HDMBO3) cells): 0.5957 and 0.4799 and 0.4227
Normalized MYC expression (MB002 cells): 0.3944 and 0.5851 and 0.5892
IC50 [1]: 1280 nM
normalized growth (fraction of control), replicate values ([1]; M = -4.7): 0.021 and 0.012 (2×) and 0.014 and 0.011 (7×) and 0.01 (2×) and 0.007 (2×) and 0.009 (3×)
normalized growth (fraction of control), replicate values ([1]; M = -5.21): 0.053 and 0.051 and 0.056 (2×) and 0.055 and 0.067 (4×) and 0.062 and 0.069 and 0.07 and 0.077 and 0.073 and 0.064 and 0.08 and 0.074 and 0.061
normalized growth (fraction of control), replicate values ([1]; M = -5.73): 0.176 and 0.2 and 0.173 (2×) and 0.221 and 0.192 and 0.209 and 0.163 and 0.174 and 0.198 and 0.167 and 0.182 and 0.161 and 0.164 and 0.153 and 0.149 and 0.147 and 0.172
normalized growth (fraction of control), replicate values ([1]; M = -6.25): 0.427 and 0.39 and 0.435 and 0.48 and 0.521 and 0.536 and 0.339 and 0.326 and 0.323 and 0.364 and 0.327 and 0.314 and 0.325 and 0.273 (2×) and 0.287 (2×) and 0.391
normalized growth (fraction of control), replicate values ([1]; M = -6.76): 0.571 and 0.619 and 0.593 and 0.57 (2×) and 0.624 and 0.745 and 0.543 and 0.601 and 0.505 and 0.54 and 0.511 and 0.346 and 0.471 and 0.506 and 0.447 and 0.463 and 0.363
normalized growth (fraction of control), replicate values ([1]; M = -7.28): 0.767 and 0.779 and 0.746 and 0.805 and 0.733 and 1.069 and 0.749 and 0.742 and 0.816 and 0.687
normalized growth (fraction of control), replicate values ([2]; M = -4.7): 0.042 and 0.025 and 0.028 and 0.036 and 0.035 and 0.041 and 0.053 (2×) and 0.048 and 0.054 and 0.043 and 0.052
normalized growth (fraction of control), replicate values ([2]; M = -5.21): 0.044 and 0.033 (2×) and 0.034 and 0.036 and 0.027 and 0.037 and 0.05 and 0.032 and 0.029 and 0.031 and 0.04
normalized growth (fraction of control), replicate values ([2]; M = -5.73): 0.036 and 0.028 and 0.032 and 0.05 and 0.027
normalized growth (fraction of control), replicate values ([2]; M = -6.25): 0.073 and 0.039 (2×) and 0.064 (2×) and 0.053 and 0.055 and 0.069 and 0.061 and 0.031 and 0.047 and 0.041
normalized growth (fraction of control), replicate values ([2]; M = -6.76): 0.122 and 0.123 and 0.093 and 0.099 and 0.112 and 0.108 and 0.113 and 0.078 and 0.09 and 0.094 and 0.079 and 0.066
normalized growth (fraction of control), replicate values ([2]; M = -7.28): 0.344 and 0.279 and 0.281 and 0.294 and 0.307 and 0.364 and 0.263 and 0.244 and 0.257 and 0.231 and 0.199 and 0.251
normalized growth (fraction of control), replicate values ([2]; M = -7.79): 0.653 and 0.647 and 0.598 and 0.634 and 0.582 and 0.697 and 0.7 and 0.556 and 0.819 and 0.469 and 0.726 and 0.588
normalized growth (fraction of control), replicate values ([2]; M = -8.31): 0.976 and 1.03 and 0.907 and 0.959 and 0.846 and 0.924 and 0.949 and 0.892 and 1.092 and 1.013 and 0.868
normalized growth (fraction of control), replicate values ([2]; M = -8.82): 1.054 and 0.933 and 1.006 and 0.821 and 1.079 and 1.062 and 1.187 and 0.91 and 1.023 (2×) and 0.934 and 0.969
IC50 [2, 3]: 39 nM
IC50 ([2]; HD-MB03, HDMBO3 G3MB cell growth, read-out: IC50 (nM) HDMBO3): 82 ± 32 nM
